Results: paper PMC5477026 (Chemical Science, 2016)

Molecular target: T1, MexG (Pseudomonas aeruginosa, UniProt Q9HWH6)
T1 sequence (Q9HWH6 1-148): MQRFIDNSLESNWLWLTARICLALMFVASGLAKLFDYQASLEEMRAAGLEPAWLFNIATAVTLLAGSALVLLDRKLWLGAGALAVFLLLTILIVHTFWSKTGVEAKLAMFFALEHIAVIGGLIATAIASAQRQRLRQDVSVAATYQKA
Assay: intrinsic Trp fluorescence quenching titration
Assay type: binding

CCCCCCCc1[nH]c2ccccc2c(=O)c1O [PQS, 2-heptyl-3-hydroxy-4(1H)-quinolone]
Kd: 1000 nM
